These results are taken from BindingDB's records for doi:10.1016/s0960-894x(98)00484-3 (National Chung-Hsing University, 1999).

For experiment [1], the target named is T1, Carboxylic ester hydrolase (Equus caballus, UniProt Q9N1N9). Briefly: (§1) Tested for kinetic data for the horse serum Butyrylcholinesterase-Catalyzed Hydrolysis of Butyrylthiocholine; 10e-3/M. sec. The conditions noted are these: read-out: kon (M-1-s-1).
Experiment [2] concerns the target T1, Carboxylic ester hydrolase. The experiment can be described thus: ChEBML_41403. The settings on record: read-out: kon (M-1-s-1).
Text: as §1

T1 sequence (Q9N1N9 whole entry): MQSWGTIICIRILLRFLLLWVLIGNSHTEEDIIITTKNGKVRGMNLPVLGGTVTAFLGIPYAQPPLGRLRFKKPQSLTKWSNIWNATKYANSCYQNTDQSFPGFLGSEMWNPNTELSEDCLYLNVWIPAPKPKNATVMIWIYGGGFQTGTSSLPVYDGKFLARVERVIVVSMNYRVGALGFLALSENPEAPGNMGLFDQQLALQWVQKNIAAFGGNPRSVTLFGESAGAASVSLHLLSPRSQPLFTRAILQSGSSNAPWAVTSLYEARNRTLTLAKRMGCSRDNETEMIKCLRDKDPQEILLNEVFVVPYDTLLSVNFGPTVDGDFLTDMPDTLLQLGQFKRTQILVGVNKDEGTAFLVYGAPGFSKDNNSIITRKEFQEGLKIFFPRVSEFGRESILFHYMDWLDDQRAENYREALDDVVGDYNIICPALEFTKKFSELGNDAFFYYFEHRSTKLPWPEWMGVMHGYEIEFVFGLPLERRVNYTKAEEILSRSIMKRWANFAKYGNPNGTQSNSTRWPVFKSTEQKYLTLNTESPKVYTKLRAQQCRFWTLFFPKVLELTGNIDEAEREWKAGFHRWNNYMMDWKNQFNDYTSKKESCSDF

In general, kon refers to the rate constant with which the complex forms. In the case of `CCCCNC(=O)OC1C2CC3CC(C2)CC1C3` (centres undefined), the kon in experiment [1] was determined as 1800 M⁻¹ s⁻¹.
As for `CCCCNC(=O)OC1C[C@H]2CCC1C2` (stereo partly drawn) [Butyl-carbamic acid (S)-bicyclo[2.2.1]hept-2-yl ester], the values for the kon in experiment [2] and in experiment [1] were 2200 M⁻¹ s⁻¹ and 110000 M⁻¹ s⁻¹, respectively.
Regarding `CCCCNC(=O)OC12CC3CC(CC(C3)C1)C2` [Butyl-carbamic acid adamantan-1-yl ester], the kon in experiment [1] stood at 1900 M⁻¹ s⁻¹.
